Laboratory results as given in US9512084B2, “Amino pyrimidine derivatives” (Novartis AG, priority 2013, dated 2016).

What was measured:
[1] = molecular target: full-length human recombinant BTK (Homo sapiens (Human), UniProt Q06187); test: Inhibition of Btk enzymatic activity (biochemical enzyme assay, Caliper); conditions: 6.4 nM enzyme solution, 164 μM ATP solution, 30° C., 60 minutes
Experimental: The inhibitory activity of the present compounds against Btk was assessed in a biochemical enzyme assay. […] The assay plates were prepared by addition of 50 nl per well of compound solution in 90% DMSO. […] Kinase reactions were analyzed on a Caliper LC3000 workstation by separating phosphorylated and unphosphorylated peptides and kinase activities were calculated from the amounts of newly formed phospho-peptide.

Btk = Btk (Rattus norvegicus, UniProt Q5S255); test: Inhibition of Btk activity in blood (in vitro B cell activation assay, CD86, rat whole blood); format: cell-based; conditions: Lewis rat whole blood diluted to 50%, anti-rat IgM + rat IL-4, 24 hours, CD86 on CD45RA positive B cells
Sequence of Btk (Q5S255 1-660): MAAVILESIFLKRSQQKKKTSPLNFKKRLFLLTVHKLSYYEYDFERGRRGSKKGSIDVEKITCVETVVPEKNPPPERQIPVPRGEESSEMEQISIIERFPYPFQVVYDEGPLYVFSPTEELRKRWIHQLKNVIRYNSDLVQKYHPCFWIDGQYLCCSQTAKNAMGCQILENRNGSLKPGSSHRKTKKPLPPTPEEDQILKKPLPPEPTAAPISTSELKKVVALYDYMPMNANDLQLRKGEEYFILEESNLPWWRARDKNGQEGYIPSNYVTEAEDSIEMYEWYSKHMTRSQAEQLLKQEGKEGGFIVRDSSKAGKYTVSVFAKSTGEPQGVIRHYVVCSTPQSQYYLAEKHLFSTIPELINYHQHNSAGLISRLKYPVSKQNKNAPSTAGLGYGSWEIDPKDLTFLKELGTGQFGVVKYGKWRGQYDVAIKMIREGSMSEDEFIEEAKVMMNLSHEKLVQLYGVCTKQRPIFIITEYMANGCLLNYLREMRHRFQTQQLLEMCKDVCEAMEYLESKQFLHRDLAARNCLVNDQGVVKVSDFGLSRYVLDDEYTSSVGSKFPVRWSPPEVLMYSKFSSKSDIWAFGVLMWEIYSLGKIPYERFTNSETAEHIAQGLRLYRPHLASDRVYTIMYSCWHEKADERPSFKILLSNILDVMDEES
Experimental: Alternatively, the inhibitory activity of the present compounds in blood was assessed in the following in vitro B cell activation assay. Whole blood was collected from the abdominal aorta of anaesthetized adult male Lewis rats and was anticoagulated with 100 U/ml sodium heparin. Blood was then diluted to 50% with high glucose DMEM (Amimed) supplemented with […] penicillin, […], 2 mM L-glutamin, 50 mg/ml dextran 40 and 5% FCS (Fetaclone I, Gibco). Then, 190 μl prediluted blood was mixed in 96 well U-bottomed microtiter plates (Nunc) with 10 μl of serial dilutions of test compounds in DMSO. […] Activation of B cells was measured by flow cytometry after staining for the B cell subset with PE-Cy5-labeled anti-ratCD45RA (Beckton-Dickinson) and for the activation marker CD86 (PE-labeled anti-rat CD86 (Beckton-Dickinson). All staining procedures were performed at RT for 30 min in the dark in 96-deep well V-bottomed microtiter plates (Corning) with BD Lysing Solution (Beckton-Dickinson).
Cytometric data was acquired on a FACScalibur flow cytometer (BD Biosciences) and the subpopulation of lymphocytes were gated according to size and granularity and further analyzed for expression of CD45RA and the activation markers. Data for the inhibition of B cell activation were calculated from the percentage of cells positively stained for activation markers within the CD45RA positive population.

Sequence of full-length human recombinant BTK (Q06187 whole entry): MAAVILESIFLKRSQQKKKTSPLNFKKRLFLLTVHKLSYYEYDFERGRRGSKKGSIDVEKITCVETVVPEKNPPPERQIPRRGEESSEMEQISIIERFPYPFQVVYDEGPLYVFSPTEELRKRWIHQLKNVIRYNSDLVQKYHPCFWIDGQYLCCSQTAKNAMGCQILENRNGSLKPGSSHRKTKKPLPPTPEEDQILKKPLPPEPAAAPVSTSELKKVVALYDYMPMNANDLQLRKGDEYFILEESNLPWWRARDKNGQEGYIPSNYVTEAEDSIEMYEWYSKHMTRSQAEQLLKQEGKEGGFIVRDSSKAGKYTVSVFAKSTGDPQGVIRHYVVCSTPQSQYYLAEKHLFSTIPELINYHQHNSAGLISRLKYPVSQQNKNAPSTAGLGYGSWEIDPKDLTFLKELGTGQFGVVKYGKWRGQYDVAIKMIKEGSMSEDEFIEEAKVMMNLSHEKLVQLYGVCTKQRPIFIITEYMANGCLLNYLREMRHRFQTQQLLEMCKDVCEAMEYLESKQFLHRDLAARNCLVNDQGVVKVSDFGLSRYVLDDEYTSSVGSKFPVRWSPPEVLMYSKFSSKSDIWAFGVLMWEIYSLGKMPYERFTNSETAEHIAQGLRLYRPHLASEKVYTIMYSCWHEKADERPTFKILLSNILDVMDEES

Row | IC50 [1] | IC50 (Btk) | SMILES
1 | 0.01 µM | 0.323 µM | Cc1c(NC(=O)c2ccc(C3CC3)cc2F)cc(F)cc1-c1ncnc(N)c1OCCN(C)C(=O)C1CO1 (stereo not shown) [Example 11, N-(2-((4-Amino-6-(3-(4-cyclopropyl-2-fluorobenzamido)-5-fluoro-2-methylphenyl)pyrimidin-5-yl)oxy)ethyl)-N-methyloxirane-2-carboxamide]
2 | 0.0004 µM | 0.051 µM | C=CC(=O)N1C[C@H](OC)C[C@H]1COc1c(N)ncnc1-c1cc(F)cc(NC(=O)c2ccc(C3CC3)cc2F)c1C [Example 26, N-(3-(5-(((2S,4R)-1-Acryloyl-4-methoxypyrrolidin-2-yl)methoxy)-6-aminopyrimidin-4-yl)-5-fluoro-2-methylphenyl)-4-cyclopropyl-2-fluorobenzamide]
3 | 0.009 µM | 0.376 µM | CC#CC(=O)N1CC(Oc2c(N)ncnc2-c2cc(F)cc(NC(=O)c3ccc(C4CC4)cc3F)c2C)C1 [Example 4, N-(3-(6-Amino-5-((1-(but-2-ynoyl)azetidin-3-yl)oxy)pyrimidin-4-yl)-5-fluoro-2-methylphenyl)-4-cyclopropyl-2-fluorobenzamide]
4 | 0.004 µM | 0.134 µM | C=CC(=O)N1C[C@@H](OC)C[C@H]1COc1c(N)ncnc1-c1cc(F)cc(NC(=O)c2ccc(C3CC3)cc2F)c1C [Example 29, N-(3-(5-(((2S,4S)-1-Acryloyl-4-methoxypyrrolidin-2-yl)methoxy)-6-aminopyrimidin-4-yl)-5-fluoro-2-methylphenyl)-4-cyclopropyl-2-fluorobenzamide]
5 | 0.001 µM | 0.419 µM | CC#CC(=O)N[C@@H](C)COc1c(N)ncnc1-c1cc(F)cc(NC(=O)c2ccc(C3CC3)cc2F)c1C [Example 18, (S)—N-(3-(6-Amino-5-(2-(but-2-ynamido)propoxy)pyrimidin-4-yl)-5-fluoro-2-methylphenyl)-4-cyclopropyl-2-fluorobenzamide]
6 | 0.015 µM | 0.558 µM | C=CC(=O)NC1(COc2c(N)ncnc2-c2cc(F)cc(NC(=O)c3ccc(C4CC4)cc3F)c2C)CC1 [Example 16, N-(3-(5-((1-Acrylamidocyclopropyl)methoxy)-6-aminopyrimidin-4-yl)-5-fluoro-2-methylphenyl)-4-cyclopropyl-2-fluorobenzamide]
7 | 0.006 µM | 0.222 µM | CC#CC(=O)N1C[C@@H](OC)C[C@H]1COc1c(N)ncnc1-c1cc(F)cc(NC(=O)c2ccc(C3CC3)cc2F)c1C [Example 30, N-(3-(6-Amino-5-(((2S,4S)-1-(but-2-ynoyl)-4-methoxypyrrolidin-2-yl)methoxy)pyrimidin-4-yl)-5-fluoro-2-methylphenyl)-4-cyclopropyl-2-fluorobenzamide]
8 | 0.001 µM | 0.176 µM | C=CC(=O)N1C[C@H](C#N)C[C@H]1COc1c(N)ncnc1-c1cc(F)cc(NC(=O)c2ccc(C3CC3)cc2F)c1C [Example 39, N-(3-(5-(((2S,4R)-1-Acryloyl-4-cyanopyrrolidin-2-yl)methoxy)-6-aminopyrimidin-4-yl)-5-fluoro-2-methylphenyl)-4-cyclopropyl-2-fluorobenzamide]
9 | 0.002 µM | 0.08 µM | C=CC(=O)N1C[C@@H](C#N)C[C@H]1COc1c(N)ncnc1-c1cc(F)cc(NC(=O)c2ccc(C3CC3)cc2F)c1C [Example 40, N-(3-(5-(((2S,4S)-1-Acryloyl-4-cyanopyrrolidin-2-yl)methoxy)-6-aminopyrimidin-4-yl)-5-fluoro-2-methylphenyl)-4-cyclopropyl-2-fluorobenzamide]
10 | 0.002 µM | 0.025 µM | C=CC(=O)N1C[C@H](F)C[C@H]1COc1c(N)ncnc1-c1cc(F)cc(NC(=O)c2ccc(C3CC3)cc2F)c1C [Example 31, N-(3-(5-(((2S,4R)-1-Acryloyl-4-fluoropyrrolidin-2-yl)methoxy)-6-aminopyrimidin-4-yl)-5-fluoro-2-methylphenyl)-4-cyclopropyl-2-fluorobenzamide]
11 | 0.012 µM | 0.459 µM | C=CC(=O)N(C)CCOc1c(N)ncnc1-c1cccc(-n2ccc3cc(C4CC4)cc(F)c3c2=O)c1 [Example 12, N-(2-((4-Amino-6-(3-(6-cyclopropyl-8-fluoro-1-oxoisoquinolin-2(1H)-yl)phenyl)pyrimidin-5-yl)oxy)ethyl)-N-methylacrylamide]
12 | 0.001 µM | 0.124 µM | C#CC(=O)N1CC(Oc2c(N)ncnc2-c2cc(F)cc(NC(=O)c3ccc(C4CC4)cc3F)c2C)C1 [Example 3, N-(3-(6-Amino-5-((1-propioloylazetidin-3-yl)oxy)pyrimidin-4-yl)-5-fluoro-2-methylphenyl)-4-cyclopropyl-2-fluorobenzamide]
13 | 0.004 µM | 0.055 µM | CC#CC(=O)N1C[C@H](F)C[C@H]1COc1c(N)ncnc1-c1cc(F)cc(NC(=O)c2ccc(C3CC3)cc2F)c1C [Example 32, N-(3-(6-Amino-5-(((2S,4R)-1-(but-2-ynoyl)-4-fluoropyrrolidin-2-yl)methoxy)pyrimidin-4-yl)-5-fluoro-2-methylphenyl)-4-cyclopropyl-2-fluorobenzamide]
14 | 0.0005 µM | 0.032 µM | C=CC(=O)N1CCC[C@H]1COc1c(N)ncnc1-c1cc(F)cc(N2CCc3cc(C4CC4)ccc3C2=O)c1CO [Example 24, (S)-2-(3-(5-((1-Acryloylpyrrolidin-2-yl)methoxy)-6-aminopyrimidin-4-yl)-5-fluoro-2-(hydroxymethyl)phenyl)-6-cyclopropyl-3,4-dihydroisoquinolin-1(2H)-one]
15 | 0.003 µM | 0.076 µM | CC#CC(=O)N1C[C@H](OC)C[C@H]1COc1c(N)ncnc1-c1cc(F)cc(NC(=O)c2ccc(C3CC3)cc2F)c1C [Example 27, N-(3-(6-Amino-5-(((2S,4R)-1-(but-2-ynoyl)-4-methoxypyrrolidin-2-yl)methoxy)pyrimidin-4-yl)-5-fluoro-2-methylphenyl)-4-cyclopropyl-2-fluorobenzamide]
16 | 0.005 µM | 0.33 µM | CC#CC(=O)N(C)[C@@H](C)COc1c(N)ncnc1-c1cc(F)cc(NC(=O)c2ccc(C3CC3)cc2F)c1C [Example 20, (S)—N-(3-(6-Amino-5-(2-(N-methylbut-2-ynamido)propoxy)pyrimidin-4-yl)-5-fluoro-2-methylphenyl)-4-cyclopropyl-2-fluorobenzamide]
17 | 0.038 µM | 1.11 µM | C/C=C/C(=O)N1CC(Oc2c(N)ncnc2-c2cc(F)cc(NC(=O)c3ccc(C4CC4)cc3F)c2C)C1 [Example 2, (E)-N-(3-(6-Amino-5-((1-(but-2-enoyl)azetidin-3-yl)oxy)pyrimidin-4-yl)-5-fluoro-2-methylphenyl)-4-cyclopropyl-2-fluorobenzamide]
18 | 0.001 µM | 0.033 µM | C=CC(=O)N1C[C@H](OC)C[C@H]1COc1c(N)ncnc1-c1cc(F)cc(N2CCc3cc(C4CC4)ccc3C2=O)c1CO [Example 28, 2-(3-(5-(((2S,4R)-1-Acryloyl-4-methoxypyrrolidin-2-yl)methoxy)-6-aminopyrimidin-4-yl)-5-fluoro-2-(hydroxymethyl)phenyl)-6-cyclopropyl-3,4-dihydroisoquinolin-1(2H)-one]

Row | SMILES | IC50 [1] | IC50 (Btk)
19 | C#CC(=O)N1CC[C@H]1COc1c(N)ncnc1-c1cc(F)cc(NC(=O)c2ccc(C3CC3)cc2F)c1C [Example 34, (S)—N-(3-(6-Amino-5-((1-propioloylazetidin-2-yl)methoxy)pyrimidin-4-yl)-5-fluoro-2-methylphenyl)-4-cyclopropyl-2-fluorobenzamide] | 0.002 µM | 0.208 µM
20 | C=CC(=O)N[C@@H](C)COc1c(N)ncnc1-c1cc(F)cc(NC(=O)c2ccc(C3CC3)cc2F)c1C [Example 17, (S)—N-(3-(5-(2-Acrylamidopropoxy)-6-aminopyrimidin-4-yl)-5-fluoro-2-methylphenyl)-4-cyclopropyl-2-fluorobenzamide] | 0.005 µM | 0.246 µM
21 | C=CC(=O)N1CC[C@H](OC)[C@H]1COc1c(N)ncnc1-c1cc(F)cc(NC(=O)c2ccc(C3CC3)cc2F)c1C [Example 38, N-(3-(5-(((2R,3S)-1-Acryloyl-3-methoxypyrrolidin-2-yl)methoxy)-6-aminopyrimidin-4-yl)-5-fluoro-2-methylphenyl)-4-cyclopropyl-2-fluorobenzamide] | 0.002 µM | 0.07 µM
22 | C=CC(=O)N(C)[C@@H](C)COc1c(N)ncnc1-c1cc(F)cc(NC(=O)c2ccc(C3CC3)cc2F)c1C [Example 19, (S)—N-(3-(6-Amino-5-(2-(N-methylacrylamido)propoxy)pyrimidin-4-yl)-5-fluoro-2-methylphenyl)-4-cyclopropyl-2-fluorobenzamide] | 0.016 µM | 0.136 µM
23 | COC/C=C/C(=O)N(C)CCOc1c(N)ncnc1-c1cc(F)cc(NC(=O)c2ccc(C3CC3)cc2F)c1C [Example 9, (E)-N-(3-(6-Amino-5-(2-(4-methoxy-N-methylbut-2-enamido)ethoxy)pyrimidin-4-yl)-5-fluoro-2-methylphenyl)-4-cyclopropyl-2-fluorobenzamide] | 0.01 µM | 0.24 µM
